Measurements published in patent publication US20040147527A1, “Methods of use of gemifloxacin compounds against fluoroquinolone resistant Streptococcus pneumoniae bacteria” (priority 1999, published 2004).
Values after ≈ are worked out from the molar mass of the structure shown.

Tests used:
[1] = tested on: S. pneumoniae with reduced susceptibility to CIP; test: MIC by NCCLS microbroth dilution, 80 clinical isolates with CIP MIC ≧2 μg/ml; assay type: cell-based; settings: Streptococcus pneumoniae
Method: Topoisomerase IV (parC) and DNA gyrase (gyrA) mutations were confirmed by sequencing the QRDR region of each gene. Serotyping and PFGE were performed on all isolates. […] Breakpoints have not been established for all fluoroquinolones, thus percentage resistance was not calculated.

[2] = tested on: S. pneumoniae (CFX and TFX susceptible and resistant clinical isolates); test: Postantibiotic effect (PAE), viable colony counting technique; assay type: cell-based, Streptococcus pneumoniae
Method: This invention was based, in part, on analyses evaluating the comparative activity of gemifloxacin against various strains of S. pneumoniae. An objective of these analyses was to determine the postantibiotic effect (herein “PAE”) of GFX in CFX and TFX susceptible and resistant S. pneumoniae.
CFX resistant clinical isolates of S. pneumoniae were collected from across Canada. MICs were determined using a microbroth dilution technique described by the NCCLS. Topisomerase IV (parC) and DNA gyrase (gyrA) mutations were confirmed by sequencing the QRDR region of each gene. Two fluoroquinolone susceptible and 8 resistant isolates (3 CFX resistant. 5 CFX, TFX resistant) were selected for study. […] Antibiotics were removed using dilution into sterile media and the PAE assessed using a viable colony counting technique.

MIC [1]	MIC50 [1]	MIC90 [1]	Compound	mean PAE ([2]; GFX, 4× MIC for 2 hours)	mean PAE ([2]; GFX, 10× MIC for 2 hours)	difference in duration of PAE between CFX or TFX susceptible and resistant strains ([2]; p<0.05)	mean PAE ([2]; TFX susceptible isolates, 4× MIC for 2 hours)	mean PAE ([2]; TFX susceptible isolates, 10× MIC for 2 hours)
0.25 to 32 µg/mL (≈ 0.637 to 81.5 µM)	0.5 µg/mL (≈ 1.27 µM)	16 µg/mL (≈ 40.8 µM)	C[C@@H]1CN(c2c(F)c(N)c3c(=O)c(C(=O)O)cn(C4CC4)c3c2F)C[C@H](C)N1 [SPA, sparfloxacin]					
0.12 to 8 µg/mL (≈ 0.334 to 22.3 µM)	0.5 µg/mL (≈ 1.39 µM)	8 µg/mL (≈ 22.3 µM)	Cc1c(F)c(N2CCNC(C)C2)cc2c1c(=O)c(C(=O)O)cn2C1CC1 (centres unmarked) [GRE, grepafloxacin]					

The next lines start with the compound.

Compound	MIC [1]	MIC50 [1]	MIC90 [1]	mean PAE ([2]; GFX, 4× MIC for 2 hours)	mean PAE ([2]; GFX, 10× MIC for 2 hours)	difference in duration of PAE between CFX or TFX susceptible and resistant strains ([2]; p<0.05)	mean PAE ([2]; TFX susceptible isolates, 4× MIC for 2 hours)	mean PAE ([2]; TFX susceptible isolates, 10× MIC for 2 hours)
CO/N=C1\CN(c2nc3c(cc2F)c(=O)c(C(=O)O)cn3C2CC2)CC1CN (racemic) [GFX, (R,S)-7-(3-aminomethyl-4-methoxyiminopyrrolidin-1-yl)-1-cyclopropyl-6-fluoro-4-oxo-1,4-dihydro-1,8-naphthyridine-3-carboxylic acid]	0.03 to 5 µg/mL (≈ 0.077 to 12.8 µM)	0.06 µg/mL (≈ 0.154 µM)	0.25 µg/mL (≈ 0.642 µM)	2.7 h	3.8 h	no significant difference		
C[C@H]1COc2c(N3CCN(C)CC3)c(F)cc3c(=O)c(C(=O)O)cn1c23 [LEV, levofloxacin]	1 to 32 µg/mL (≈ 2.77 to 88.6 µM)	2 µg/mL (≈ 5.53 µM)	16 µg/mL (≈ 44.3 µM)					
COc1c(N2CCNC(C)C2)c(F)cc2c(=O)c(C(=O)O)cn(C3CC3)c12 (centres unmarked) [GAT, gatifloxacin]	0.25 to 8 µg/mL (≈ 0.666 to 21.3 µM)	0.5 µg/mL (≈ 1.33 µM)	4 µg/mL (≈ 10.7 µM)					
N[C@@H]1[C@H]2CN(c3nc4c(cc3F)c(=O)c(C(=O)O)cn4-c3ccc(F)cc3F)C[C@@H]12 [TFX, trovafloxacin]	0.06 to 8 µg/mL (≈ 0.144 to 19.2 µM)	0.5 µg/mL (≈ 1.2 µM)	4 µg/mL (≈ 9.61 µM)				2.1 h	3.2 h
COc1c(N2C[C@@H]3CCCN[C@@H]3C2)c(F)cc2c(=O)c(C(=O)O)cn(C3CC3)c12 [MOX, moxifloxacin]	0.12 to 4 µg/mL (≈ 0.299 to 9.96 µM)	0.25 µg/mL (≈ 0.623 µM)	2 µg/mL (≈ 4.98 µM)					
